Patent US20150105252A1, “SUBSTITUTED PYRAZOLES AS HERBICIDES” (E I DU PONT DE NEMOURS AND COMPANY, priority 2013, published 2015)

Key:
wheat [1] = assay: Test A postemergence; format: in vivo, Triticum aestivum; conditions: Postemergence
Method in brief: (§1)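 Seeds were sown in a loam soil–sand blend and given a directed soil spray preemergence; postemergence plants at 2–10 cm, one- to two-leaf stage, were sprayed with compound in non-phytotoxic solvent with surfactant. After about 10 days in a greenhouse, injury was visually rated against untreated controls (0 = no effect, 100 = complete control).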

johnsongrass = assay: Test C preemergence; format: in vivo, Sorghum halepense
Method in brief: (§2)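 Herbicidal effect is expressed as percent visual control (0–100) judged against untreated plants 13 to 15 days after treatment in the greenhouse. Preemergence pots contained seeds in a soil–sand blend; postemergence plants, 2–18 cm tall, grew in peat-based planting medium.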

rice = assay: Test B flood; format: in vivo, Oryza sativa; conditions: 250 g ai/ha, visual rating on 0 to 100 scale (0 no effect, 100 complete control), 13 to 15 days
Method in brief: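 Plants were grown to the 2-leaf stage, then pots were flooded to 3 cm above the soil and compounds were applied directly into the paddy water. Water depth was held for the whole test; after 13 to 15 days in a greenhouse, injury was visually rated against untreated controls (0 = no effect, 100 = complete control).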

barnyardgrass = assay: Test C postemergence; format: in vivo, Echinochloa crus-galli
Method in brief: as §2

velvetleaf = assay: Test C postemergence; format: in vivo, Abutilon theophrasti; conditions: postemergence
Method in brief: as §2

crabgrass, large = assay: Test C postemergence; format: in vivo, Digitaria sanguinalis
Method in brief: as §2

foxtail, giant [2] = assay: Test A preemergence; format: in vivo, Setaria faberii; conditions: preemergence
Method in brief: as §1

wheat [3] = assay: Test A preemergence; format: in vivo, Triticum aestivum; conditions: preemergence, 125 g ai/ha, visual injury approx. 10 days after treatment
Method in brief: as §1

foxtail, giant [4] = assay: Test C preemergence; format: in vivo, Setaria faberii
Method in brief: as §2

lambsquarters = assay: Test C preemergence; format: in vivo, Chenopodium album
Method in brief: as §2

nutsedge, yellow = assay: Test C postemergence; format: in vivo, Cyperus esculentus
Method in brief: as §2

pigweed = assay: Test A preemergence; format: in vivo, Amaranthus retroflexus; conditions: preemergence, 125 g ai/ha, visual injury approx. 10 days after treatment
Method in brief: as §1

blackgrass = assay: Test C postemergence; format: in vivo, Alopecurus myosuroides
Method in brief: as §2

[5] = Preemergence, rate head not shown (block before 16 g ai/ha), scale 0 to 100
[6] = preemergence, 62 g ai/ha, scale 0 to 100 (0 no effect, 100 complete control), 13 to 15 days
[7] = preemergence, 125 g ai/ha, 13 to 15 days, scale 0 to 100, 0 = no effect, 100 = complete control
[8] = preemergence, 250 g ai/ha, scale 0 to 100, 0 is no effect, 100 is complete control
[9] = Postemergence, 31 g ai/ha, visually evaluated after 13 to 15 days
[10] = postemergence, 62 g ai/ha, scale 0 to 100
[11] = postemergence, 250 g ai/ha, scale 0 to 100 (0 no effect, 100 complete control)
[12] = postemergence, 125 g ai/ha, scale 0 to 100, 0 no effect, 100 complete control

In the case of `CCc1cc(C(=O)NCC(F)(F)F)nn1Cc1ccnc(Br)c1` [Compound 224], the “Wheat plant response rating” value (wheat [1]; 125 g ai/ha, 0 to 100 scale, 0 no effect, 100 complete control) is reported as 30, the “Wheat plant response rating” value (wheat [1]; 500 g ai/ha, 0 to 100 scale (0 no effect, 100 complete control)) is reported as 90 and the “Plant response rating, Johnsongrass” value (johnsongrass; [5]) is reported as 15. For the same molecule, the “Johnsongrass plant response rating” value (johnsongrass; [6]) was 50, the “Plant response rating, Johnsongrass” value (johnsongrass; [7]) was 60 and the “Johnsongrass plant response rating” value (johnsongrass; [8]) was 98. For the same molecule, the “Plant response rating, Rice” value (rice) was 20, the “Plant response rating (scale of 0 to 100 where 0 is no effect and 100 is complete control), Barnyardgrass” value (barnyardgrass; [9]) was 0 and the “Barnyardgrass plant response rating” value (barnyardgrass; [10]) was 10. The “Plant response rating, Barnyardgrass” value (barnyardgrass; [11]) was 10, the “Plant response rating, Barnyardgrass” value (barnyardgrass; [12]) was 10 and the “Plant response rating, Velvetleaf” value (velvetleaf; 250 g ai/ha, scale 0 to 100 (0 no effect, 100 complete control)) was 25. For the same molecule, the “Velvetleaf plant response rating” value (velvetleaf; scale 0 to 100) was 20, the “Plant response rating (scale of 0 to 100 where 0 is no effect and 100 is complete control), Crabgrass, Large” value (crabgrass, large; [9]) was 5 and the “Crabgrass, Large plant response rating” value (crabgrass, large; [10]) was 5. The “Plant response rating, Crabgrass, Large” value (crabgrass, large; [11]) was 20, the “Plant response rating, Crabgrass, Large” value (crabgrass, large; [12]) was 5 and the “Foxtail, Giant plant response rating (0 to 100 scale)” value (foxtail, giant [2]; 125 g ai/ha, visual injury approx. 10 days after treatment) was 100. The “Foxtail, Giant plant response rating” value (foxtail, giant [2]; 500 g ai/ha, visual injury after approx. 10 days, 0 to 100 scale (0 no effect, 100 complete control)) was 100, the “Wheat plant response rating (0 to 100 scale)” value (wheat [3]) was 30 and the “Plant response rating, Foxtail, Giant” value (foxtail, giant [4]; [5]) was 95. The “Foxtail, Giant plant response rating” value (foxtail, giant [4]; [6]) was 100, the “Plant response rating, Foxtail, Giant” value (foxtail, giant [4]; [7]) was 100 and the “Foxtail, Giant plant response rating” value (foxtail, giant [4]; [8]) was 100. The “Plant response rating, Lambsquarters” value (lambsquarters; [5]) was 100, the “Lambsquarters plant response rating” value (lambsquarters; [6]) was 100 and the “Plant response rating, Lambsquarters” value (lambsquarters; [7]) was 100. The “Lambsquarters plant response rating” value (lambsquarters; [8]) was 100, the “Plant response rating (scale of 0 to 100 where 0 is no effect and 100 is complete control), Nutsedge, Yellow” value (nutsedge, yellow; [9]) was 0 and the “Nutsedge, Yellow plant response rating” value (nutsedge, yellow; [10]) was 0. The “Plant response rating, Nutsedge, Yellow” value (nutsedge, yellow; [11]) was 5, the “Plant response rating, Nutsedge, Yellow” value (nutsedge, yellow; [12]) was 5 and the “Pigweed plant response rating (0 to 100 scale)” value (pigweed) was 100. For the same molecule, the “Plant response rating (scale of 0 to 100 where 0 is no effect and 100 is complete control), Blackgrass” value (blackgrass; [9]) was 5, the “Blackgrass plant response rating” value (blackgrass; [10]) was 5 and the “Plant response rating, Blackgrass” value (blackgrass; [11]) was 20. For the same molecule, the “Plant response rating, Blackgrass” value (blackgrass; [12]) was 5.
